Data: US20110319484A1, “NEUROPROTECTIVE COMPOUNDS” (Parque Tecnologico de Ciencias de la Salud, priority 2009, published 2011)
Where a SMILES comes first, the peptide text is derived from it. The star is where a group is joined. Cbz = O=C(OCc1ccccc1)*; CH2F = FC*

Legend:
[1] = tested on: human neuroblastoma SK-N-MC cells; experiment: Inhibition of ROS production induced by xanthine/xanthine oxidase (H2DCFDA probe, LDH-normalized); format: cell-based; details: XXO 10 μM-100 mU/ml, AA 100 μM, positive control
Procedure: The assay was performed on human neuroblastoma SK-N-MC cells in culture from the American Type Culture Collection (ATCC) (HTB-10), in all cases strict rules of sterility were followed and the manipulation was performed in class II biological safety cabinets following European standard EN 12469. The cells were maintained in Minimum Essential Medium Eagle (MEM) culture medium supplemented with 1 mM sodium pyruvate, 2 mM L-glutamine, 0.1 mM non-essential amino acids, 0.05 mg/ml gentamicin and 10% fetal bovine serum.
The inhibition by the NST0003 compound [(1S,3R,7S,8S,8aR)-1,2,3,7,8,8a-hexahydro-3,7-dimethyl-8-[2-[(2R,4R)-tetrahydro-4-hydroxy-6-oxo-2H-pyran-2-yl]ethyl-1-naphthalenyl propanoate] on the production of reactive oxygen species (ROS) in the SK-N-MC cells, was analyzed. […]
The cells were incubated (at 37° C. and 5% CO2) with these treatments for 3 h, after which time they were washed with HKRB buffer (20 mM HEPES, 103 mM NaCl, 4.77 mM KCl, 0.5 mM CaCl2, 1.2 mM MgCl2, 1.2 mM KH2PO4, 25 mM […], 15 mM glucose; at pH 7.3) after which the 2′,7′-dichlorodihydrofluorescein diacetate (H2DCFDA) probe was added at 30 μM diluted in HKRB buffer and it was incubated for another 2 hours in the same conditions. The reading of the plate was taken in a fluorometer at the conditions of 485 nm for excitation and 538 nm for emission. […]

[2] = tested on: caspase 3/7 activation in SK-N-MC cells; experiment: Inhibition of camptothecin-induced caspase 3/7 activation (Apo-ONE kit); format: cell-based, human; details: camptothecin 50 μM, 6 h, Z-VAD-fmk 50 μM
Procedure: To that end, the inhibition caused by (1S,3R,7S,8S,8aR)-1,2,3,7,8,8a-hexahydro-3,7-dimethyl-8-[2-[(2R,4R)-tetrahydro-4-hydroxy-6-oxo-2H-pyran-2-yl]ethyl-1-naphthalenyl 2,2-dimethylpropanoate (NST0005) of apoptosis caused by the treatment with camptothecin (Campt) on the SK-N-MC cells in culture was analyzed following the working conditions specified in section 3.1. Apoptosis can be quantified by measuring effector caspase activation. Caspases (proteins belonging to the cysteine-protease group) mediate the cleavage of a series of proteins triggering the signaling cascade which leads cells to apoptosis. […] The active cellular caspases 3 or 7 cause the cleavage of the substrate, emitting fluorescence which is read by means of a fluorometer.
The effect of the pretreatment of the NST0005 compound at 40 and 100 μg/ml on caspase 3/7 activation caused by 50 μM of camptothecin (Campt) in the SK-N-MC cells was thus analyzed. […]
The cells were incubated (at 37° C. and 5% CO2) with these treatments for 6 h, after which time the lysis buffer and the substrate rhodamine 110 were added at the concentrations specified by the manufacturer; they were incubated at room temperature for 30 minutes and the cells were then frozen at −20° C. overnight. They were thawed the next day and the reading of the plate was taken in a fluorometer at 499 nm for excitation and 521 nm for emission.

SK-N-MC cells = experiment: Inhibition of camptothecin-induced apoptosis by flow cytometry (propidium iodide, sub-G1); format: cell-based, human; details: camptothecin 50 μM, 6 h, Z-VAD-fmk 50 μM
Procedure: To that end, the inhibition caused by the NST0005 compound of apoptosis caused by the treatment with camptothecin (Campt) was analyzed. The SK-N-MC cells, not exceeding 15 passages, were seeded on 6-well plates treated for adherent cells with a cell concentration of 8×10^5 cells/well; 2 wells of the plate were seeded for each condition of the assay.
After 24 h of cell incubation at 37° C. and 5% CO2 the cell treatments were performed with 2 ml of total volume for the following conditions: (i), control (culture medium); (ii), camptothecin [50 μM]; (iii) camptothecin [50 μM] and Z-VAD-fmk [50 μM] (Alexis), as positive control of inhibition; and (iv), 50 μM camptothecin with NST0005 at different concentrations [4, 10, 40 and 100 μg/ml].
The cells were incubated (at 37° C. and 5% CO2) with these treatments for 6 h, after which time they were pooled together with their culture medium and centrifuged at 300×g for 5 minutes. The medium was removed, a washing was performed with phosphate buffered saline (PBS) and they were fixed for 2 minutes with 500 μl of 70% ethanol at −20° C. […] After this time, they were analyzed by flow cytometry, comparing the fluorescence of the propidium iodine against the amount of DNA. The percentage of apoptosis was measured on the sub-G1 region of each of the conditions. […]

| SMILES | inhibition at 100 µM [1] | inhibition of caspase 3/7 activation [2] | inhibition of apoptosis caused by camptothecin (flow cytometry) (SK-N-MC cells) |
| --- | --- | --- | --- |
| O=C1O[C@H]([C@@H](O)CO)C(O)=C1O [AA, ascorbic acid, reference compound] | 80% | – | – |
| COC(=O)C[C@H](NC(=O)[C@H](C)NC(=O)[C@@H](NC(=O)OCc1ccccc1)C(C)C)C(=O)CF [Z-VAD-fmk, reference compound] (Cbz-Val-Ala-Asp(OMe)-CH2F) | – | completely inhibited | 30% |
